Data on 13 compounds can be found in ChEMBL document CHEMBL4699440, “Comprehensive review on the anti-bacterial activity of 1,2,3-triazole hybrids” (Eur J Med Chem, 2019).

Converted amounts (≈) assume the structure as drawn.

Assay [1] relates to Pseudomonas aeruginosa. The assay can be described thus: Antibacterial activity against Pseudomonas aeruginosa RCMB 010043 by broth dilution method. Format: functional. In general terms: Dilution methods test growth across graded concentrations, often in twofold steps.
For assay [2], the system named is Escherichia coli. Put plainly: Antibacterial activity against Escherichia coli RCMB 010052 by broth dilution method. In kind it is functional.
Assay [3] has as its system Klebsiella pneumoniae. The assay can be described thus: Antibacterial activity against Klebsiella pneumonia RCMB 010058 by broth dilution method. Format: functional.
Assay [4] concerns Staphylococcus aureus. The assay can be described thus: Antibacterial activity against Staphylococcus aureus RCMB 010025 by broth dilution method. Format: functional.
A further assay concerns Streptococcus pneumoniae. The assay can be described thus: Antibacterial activity against Streptococcus pneumoniae RCMB 010010 by broth dilution method. In kind it is functional.
The subject of a further assay is Bacillus subtilis. Put plainly: Antibacterial activity against Bacillus subtilis RCMB 010067 by broth dilution method. In kind it is functional.
Assay [5] deals with Staphylococcus aureus. Put plainly: Antibacterial activity against Staphylococcus aureus ATCC 25923 incubated for 24 hrs by microdilution method. In kind it is functional.
Assay [6] has as its system Escherichia coli. The assay can be described thus: Antibacterial activity against Escherichia coli ATCC 25922 incubated for 24 hrs by microdilution method. In kind it is functional.
A further assay deals with Candida albicans. The assay can be described thus: Antifungal activity against Candida albicans ATCC 50193 incubated for 24 hrs by microdilution method. Format: functional.
The subject of another assay is Proteus mirabilis. Put plainly: Antibacterial activity against Proteus mirabilis ATCC 35659 incubated for 24 hrs by microdilution method. Format: functional.
In assay [7] the test system is Enterococcus faecalis. Put plainly: Antibacterial activity against Enterococcus faecalis ATCC 29212 incubated for 24 hrs by microdilution method. In kind it is functional.
A further assay deals with Aspergillus brasiliensis. The assay can be described thus: Antifungal activity against Aspergillus brasiliensis ATCC 16404 incubated for 24 hrs by microdilution method. In kind it is functional.
The test system of the next assay is Bacillus cereus. The assay can be described thus: Antibacterial activity against Bacillus cereus ATCC 10876 incubated for 24 hrs by microdilution method. Format: functional.
Assay [8] concerns Pseudomonas aeruginosa. Put plainly: Antibacterial activity against Pseudomonas aeruginosa ATCC 27853 incubated for 24 hrs by microdilution method. Format: functional.
Assay [9] deals with Staphylococcus aureus. The assay can be described thus: Antibacterial activity against Staphylococcus aureus 209P JC1 incubated for 20 hrs by agar dilution method. Format: functional.
For assay [10], the system named is Escherichia coli. Put plainly: Antibacterial activity against Escherichia coli NIHJ JC2 incubated for 20 hrs by agar dilution method. Format: functional. For orientation: Agar dilution tests growth on a series of plates holding different concentrations.
Assay [11] concerns Pseudomonas aeruginosa. Put plainly: Antibacterial activity against Pseudomonas aeruginosa 12 incubated for 20 hrs by agar dilution method. Format: functional.
The test system of the next assay is Salmonella enterica. Put plainly: Antibacterial activity against Salmonella enterica MTCC 3224 incubated overnight by broth dilution technique. Format: functional, organism-based.
In assay [12] the test system is Pseudomonas aeruginosa. Put plainly: Antibacterial activity against Pseudomonas aeruginosa MTCC 2453 incubated overnight by broth dilution technique. In kind it is functional, organism-based.
In assay [13] the test system is Enterococcus faecalis. Put plainly: Antibacterial activity against Enterococcus faecalis MTCC 439 incubated overnight by broth dilution technique. Format: functional, organism-based.
In assay [14] the test system is Escherichia coli. Put plainly: Antibacterial activity against Escherichia coli ATCC 25922 incubated overnight by broth dilution technique. In kind it is functional, organism-based.
Assay [15] relates to Klebsiella pneumoniae. The assay can be described thus: Antibacterial activity against Klebsiella pneumoniae ATCC 700603 incubated overnight by broth dilution technique. In kind it is functional, organism-based.

In general, MIC refers to the least concentration at which growth counts as inhibited. Low values mean greater potency, high ones weaker potency. For `CCOCSc1nnc(-c2nnn(-c3ccccc3Cl)c2-c2nnc(SCOCC)o2)o1`, the minimum inhibitory concentration (MIC) in the assay on Pseudomonas aeruginosa [1], in the assay on Escherichia coli [2], with Klebsiella pneumoniae [3], in the assay with Staphylococcus aureus [4], in the assay with Streptococcus pneumoniae and in the assay on Bacillus subtilis was 31.2 µg/mL (≈ 63 µM) each time.
As to `CCCCCCCCCCn1nnc(-c2n[nH]c(=S)n2N)c1-c1n[nH]c(=S)n1N`, the minimal inhibitory concentration (MIC) in the assay on Staphylococcus aureus [5], against Escherichia coli [6], against Candida albicans, in the assay on Proteus mirabilis, in the assay with Enterococcus faecalis [7] and in the assay with Aspergillus brasiliensis was 1 µg/mL (≈ 2.29 µM) in each case. Besides, the MIC against Bacillus cereus and in the assay on Pseudomonas aeruginosa [8] was 1 µg/mL (≈ 2.29 µM) in each case.
`CCCCCCCCn1nnc(-c2n[nH]c(=S)n2-c2ccccc2)c1-c1n[nH]c(=S)n1-c1ccccc1`: the MIC against Staphylococcus aureus [5], against Escherichia coli [6], against Candida albicans, in the assay on Proteus mirabilis, in the assay with Enterococcus faecalis [7] and against Aspergillus brasiliensis was 2 µg/mL (≈ 3.76 µM) in each case. The minimum inhibitory concentration (MIC) in the assay on Bacillus cereus and in the assay on Pseudomonas aeruginosa [8] was 2 µg/mL (≈ 3.76 µM) throughout.
With `CCCCCCCCCCCCn1nnc(-c2n[nH]c(=S)n2N)c1-c1n[nH]c(=S)n1N`, the MIC against Staphylococcus aureus [5], against Escherichia coli [6], against Candida albicans, against Proteus mirabilis, against Enterococcus faecalis [7] and in the assay on Aspergillus brasiliensis was 1 µg/mL (≈ 2.15 µM) in each case. The minimal inhibitory concentration (MIC) with Bacillus cereus and in the assay on Pseudomonas aeruginosa [8] was 1 µg/mL (≈ 2.15 µM) throughout.
As for `CC(=O)OCCCSc1nnc(-c2nnn(-c3ccccc3Cl)c2-c2nnc(SCCCOC(C)=O)o2)o1`, the minimal inhibitory concentration (MIC) with Pseudomonas aeruginosa [1], with Escherichia coli [2], with Klebsiella pneumoniae [3], against Staphylococcus aureus [4], with Streptococcus pneumoniae and against Bacillus subtilis was 31.2 µg/mL (≈ 53.9 µM) throughout.
Turning to `CC1CCN(c2c(Cl)c3c(c(=O)c(C(=O)O)cn3C3CC3)c3[nH]nnc23)CC1`, the MIC against Staphylococcus aureus [9], in the assay on Escherichia coli [10] and against Pseudomonas aeruginosa [11] was 0.05 µg/mL (≈ 0.124 µM) each time.
`O=C(O)c1cn(C2CC2)c2c(F)c(N3CCCCC3)c3nn[nH]c3c2c1=O`: the MIC in the assay on Staphylococcus aureus [9], with Escherichia coli [10] and in the assay on Pseudomonas aeruginosa [11] was 0.05 µg/mL (≈ 0.135 µM) in each case.
On to `CC(=O)OCC(CSc1nnc(-c2nnn(-c3ccccc3Cl)c2-c2nnc(SCC(COC(C)=O)OC(C)=O)o2)o1)OC(C)=O` (stereo not drawn), for which the minimal inhibitory concentration (MIC) against Pseudomonas aeruginosa [1], in the assay with Escherichia coli [2], with Klebsiella pneumoniae [3], with Staphylococcus aureus [4], in the assay on Streptococcus pneumoniae and against Bacillus subtilis was 31.2 µg/mL (≈ 44.9 µM) throughout.
With `CCOCCSc1nnc(-c2nnn(-c3ccccc3Cl)c2-c2nnc(SCCOCC)o2)o1`, the MIC in the assay on Pseudomonas aeruginosa [1], against Escherichia coli [2], against Klebsiella pneumoniae [3], in the assay with Staphylococcus aureus [4], with Streptococcus pneumoniae and with Bacillus subtilis was 31.2 µg/mL (≈ 59.6 µM) each time.
Turning to `CCCCCCCCCCn1nnc(-c2n[nH]c(=S)n2-c2ccccc2)c1-c1n[nH]c(=S)n1-c1ccccc1`, the MIC against Staphylococcus aureus [5], against Escherichia coli [6], with Candida albicans, with Proteus mirabilis, in the assay on Enterococcus faecalis [7] and against Aspergillus brasiliensis was 2 µg/mL (≈ 3.57 µM) each time. In addition, the minimal inhibitory concentration (MIC) in the assay on Bacillus cereus and with Pseudomonas aeruginosa [8] was 2 µg/mL (≈ 3.57 µM) throughout.
In the case of `C[C@@H]1CN(c2c(F)c(N)c3c(=O)c(C(=O)O)cn(C4CC4)c3c2F)C[C@H](C)N1` [SPARFLOXACIN], the MIC with Staphylococcus aureus [9], in the assay on Escherichia coli [10] and against Pseudomonas aeruginosa [11] was 0.0125 µg/mL (≈ 0.0319 µM) each time.
In general, IC50 refers to the concentration that gives 50% inhibition. The low end stands for higher potency, the high end for lower potency. `COc1ccc(-n2cc(COc3cccc4cccnc34)nn2)cc1`: the half-inhibitory concentration (IC50) in the assay on Salmonella enterica, in the assay on Pseudomonas aeruginosa [12], with Enterococcus faecalis [13], in the assay on Escherichia coli [14] and in the assay on Klebsiella pneumoniae [15] was 164 µg/mL (≈ 495 µM) each time.
Take `CC1CCN(c2cc3c(c(=O)c(C(=O)O)cn3C3CC3)c3[nH]nnc23)CC1`: the minimum inhibitory concentration (MIC) against Staphylococcus aureus [9], against Escherichia coli [10] and against Pseudomonas aeruginosa [11] was 0.05 µg/mL (≈ 0.136 µM) throughout.
